The values below come from PMC8868383, “Pharmacokinetics and Pharmacodynamics of Key Components of a Standardized Centella asiatica Product in Cognitively Impaired Older Adults: A Phase 1, Double-Blind, Randomized Clinical Trial” (Antioxidants, 2022).

“And” between values parts separate entries of the source, which are not always exact repeats. Equal values may be shown once. Read-outs that look alike come from different tables or passages of the source.

Data set [1] can be described thus: Plasma pharmacokinetics after single oral administration of CAP. As to conditions: for Cmax / Tmax / AUC(0-t) / half-life: human; for Cmax / Tmax / AUC(0-t) / half-life / Fold difference in Cmax between the 2 g and 4 g doses: plasma; for Time of preliminary (initial) peak of plasma concentration-time curve / Time of larger secondary peak of plasma concentration-time curve: mean profile, both doses (2 g and 4 g).
Description: (§1) This was a single-center, randomized, double blind, crossover study of two acute dosages (2 g and 4 g) of CAP. The participants were randomized using an arm equivalence design, by the OHSU Research Pharmacy, to receive each dose of CAP in a different order to prevent tolerance effects and ensure some data was available from each dose in the case of a dropout after the first dose. All study personnel were blinded to the participant’s randomization until all data analysis had been completed. All participants consumed both doses of CAP and attended two study visits a minimum of 14 days apart. They were placed on a low phytochemical diet for 48 h prior to and during each study visit in order to minimize interference from dietary TTs and CQAs and ensure that any such compounds identified in the plasma and urine were derived from C. asiatica. To ensure compliance, all participants completed a diet diary over the course of the 48 h. The participants fasted for a minimum of 10 h prior to each study visit, excluding water, to standardize gastrointestinal transit time and minimize delayed absorption due to the presence of food.
(§2) In the morning of each study visit, a baseline blood sample (20 mL) was collected via a peripheral intravenous catheter. […] Blood samples (10 mL) were collected via the peripheral catheter over a 10 h post-administration period at 0.25, 0.5, 0.75, 1, 1.5, 2, 2.5, 3, 4, 6, 8, and 10 h. Blood was transferred to a BD Vacutainer™ heparinized tube (Fisher Scientific) and centrifuged for 10 min at 10,000× g and 4 °C to isolate plasma. Plasma was frozen in 2mL aliquots and kept at −80 °C until analysis. […] All participants were asked to refrain from consuming food until 2 h after consumption of the study intervention at each visit to prevent delayed absorption due to food effects. Breakfast (at 2 h following CAP ingestion), lunch, dinner and snacks, all meeting the low phytochemical criteria, were provided by the OCTRI Bionutrition Unit. Urine samples were collected at baseline and over the 10 h post-administration period at each visit to measure renal excretion. All post-administration urinary output was combined in a 2 L urine collection container stored at 4 °C during the study visit. The total amount of post CAP administration urine was recorded, and a 50 mL aliquot was frozen at −80 °C for analysis. At the second visit, participants consumed the dose they were not randomized to receive at the first visit and underwent all study procedures previously described.
(§3) Sample preparation was performed using a protein precipitation method adapted from Cheng et al. [55] Duplicate plasma samples (50 µL) were combined with an ascorbic acid solution (1%; 10 µL) and incubated for 20 min at 37 °C using A. aerogenes sulfatase (2.5 µL; 0.025–0.05 units) and E. coli glucuronidase (2.5 µL; 12.5–125 units) dissolved in 50% aqueous glycerol to release the analytes from their sulfate and β-D-glucuronic acid esters. Proteins were precipitated by adding a crash solution (200 µL) consisting of 3:1 acetonitrile:methanol containing internal standards (20 µg/mL d3-isoferulic acid, d3-dihydroisoferulic acid, and chrysin or 50 µg/mL ^13C3-ferulic acid and ursolic acid), holding for 30 min at 4 °C and then centrifuged for 5 min at 10,000× g. The supernatant was filtered through a 0.22 µm Ultrafree MC-GV spin filter (Millipore Sigma) at 10,000× g for 5 min at 4 °C and then transferred to vials for analysis. For TT analysis, the concentration of organic solvent (the sample filtrate) to water in each sample was adjusted to a 60:40 ratio to optimize the peak shape, and for CQA analysis, the concentration of organic solvent to 1% aqueous formic acid in each sample was adjusted to a 90:10 ratio to optimize the peak shape.

Data set [2] in a line: Renal (urinary) excretion over 10 h after CAP administration. As to conditions: for Detection in 10 h post-administration urine / Predominant form (free or conjugated) in post-administration urine: 2 g and 4 g CAP; for Predominant form (free or conjugated) in post-administration urine: 10 h urine.
Protocol: (§4) All participants were asked to refrain from consuming food until 2 h after consumption of the study intervention at each visit to prevent delayed absorption due to food effects. […] Urine samples were collected at baseline and over the 10 h post-administration period at each visit to measure renal excretion. All post-administration urinary output was combined in a 2 L urine collection container stored at 4 °C during the study visit. The total amount of post CAP administration urine was recorded, and a 50 mL aliquot was frozen at −80 °C for analysis. At the second visit, participants consumed the dose they were not randomized to receive at the first visit and underwent all study procedures previously described.
(§5) Calibration curves were prepared in baseline urine and treated with sham enzyme.
(§6) Plasma and urine samples collected at the participant’s screening visit were analyzed in parallel with the samples collected from each study visit to determine the efficacy of the low phytochemical diet in reducing analyte levels from dietary sources. The analysis of the prepared plasma and urine samples was performed at the OHSU Bioanalytical Shared Resource/Pharmacokinetics Core Laboratory (Portland, OR). […] The injection volume was 5 µL. Gradient elution was performed using a mobile phase of solvent A (water containing 0.05% v/v acetic acid) and solvent B (acetonitrile with 0.05% v/v acetic acid). The flow rate was 0.8 mL/min.
On the set-up of data set [3]: method as in PMID 33767223. Conditions: two separate doses (250 mg and 500 mg), formulation with solubilizing agent; cited from earlier work.
Data set [4] is described as follows: Analyte levels in screening and baseline plasma and urine (low phytochemical diet check). As to conditions: for Baseline Total, urine concentration / Baseline Unconjugated, urine concentration: baseline on study visits after 48 h low phytochemical diet, before CAP; for Baseline Total, urine concentration / Screening Unconjugated, urine concentration / Screening Total, urine concentration / Baseline Unconjugated, urine concentration: mean ± SEM, n = 4; for Screening Unconjugated, urine concentration / Screening Total, urine concentration: screening visit; for Screening Unconjugated, urine concentration / Screening Total, urine concentration / Plasma concentration at screening visit: uncontrolled diet; for Screening Unconjugated, urine concentration: sham enzyme; for Screening Total, urine concentration: with enzyme hydrolysis; for Plasma concentration at screening visit: before any CAP.
Description: as §1, §5
(§7) Plasma and urine samples collected at the participant’s screening visit were analyzed in parallel with the samples collected from each study visit to determine the efficacy of the low phytochemical diet in reducing analyte levels from dietary sources. The analysis of the prepared plasma and urine samples was performed at the OHSU Bioanalytical Shared Resource/Pharmacokinetics Core Laboratory (Portland, OR). For detection of TT glycosides and aglycones, an analytical method adapted from Nair et al. [56] was used. […] The injection volume was 20 µL. Gradient elution was performed using a mobile phase of solvent A (water containing 10 mM ammonium acetate and 0.02% ammonium hydroxide; pH 8.5) and solvent B (methanol). The flow rate was 0.42 mL/min. […] The injection volume was 5 µL. Gradient elution was performed using a mobile phase of solvent A (water containing 0.05% v/v acetic acid) and solvent B (acetonitrile with 0.05% v/v acetic acid). The flow rate was 0.8 mL/min.

A further data set can be described thus: clinical. As to conditions: human, in vivo, po.
On the set-up of data set [5]: method as in PMID 2329813, PMID 8020529. As to conditions: past human studies of TTFCA or asiatic acid alone, capsule form; cited from earlier work.
On the set-up of data set [6]: method as in PMID 19167274. As to conditions: dogs given encapsulated aqueous extracts of C. asiatica standardized to asiaticoside; cited from earlier work.
The conditions of data set [7]: human, in vivo.
Description: as §1, §2, §3
The conditions of data set [8]: in vivo.
Protocol: as §4, §5, §6
The conditions of data set [9]: in vivo. This is another data set of the same source.
Description: as §1, §5, §7

Description for clinical: as §1, §2, §3

Turning to `C[C@H]1[C@H](C)CC[C@]2(C(=O)O[C@@H]3O[C@H](CO[C@@H]4O[C@H](CO)[C@@H](O[C@@H]5O[C@@H](C)[C@H](O)[C@@H](O)[C@H]5O)[C@H](O)[C@H]4O)[C@@H](O)[C@H](O)[C@H]3O)CC[C@]3(C)C(=CC[C@@H]4[C@@]5(C)C[C@@H](O)[C@H](O)[C@@](C)(CO)[C@@H]5[C@H](O)C[C@]43C)[C@H]12` [MS, madecassoside], the Plasma levels entry in [1] (all time points, 2 g and 4 g CAP) was “below the lower limit of quantitation (LLOQ)”. For the same compound, in [2], the “Detection in 10 h post-administration urine” value is given as “small amounts” and the “Predominant form (free or conjugated) in post-administration urine” value (“Predominant form (free or conjugated)” for short) is given as “predominantly free form”. For the same compound, the “Amount in the 10 h urine” value in data set [2] (after 2 g or 4 g CAP) is 1 to 8 µg. For the same compound, in data set [3], the “Plasma concentration after single administration of modified ECa233” value is 10 to 13 ng/mL.
As to `C[C@H]1[C@H](C)CC[C@]2(C(=O)O)CC[C@]3(C)C(=CC[C@@H]4[C@@]5(C)C[C@@H](O)[C@H](O)[C@@](C)(CO)[C@@H]5[C@H](O)C[C@]43C)[C@H]12` [MA, madecassic acid], the Cmax in data set [1] (oral) is 36 to 68 ng/mL; in data set [1] (oral, 2 g) it was 32 ng/mL; in data set [1] (oral, 4 g), 47 ng/mL; in data set [1] (po, 2 g), 38 ± 3 ng/mL; in data set [1] (po, 4 g), 63 ± 10 ng/mL. Further, the Tmax in data set [1] (oral) turned out to be 2 h; in data set [1] (oral, 2 g), 0.75 h; in data set [1] (oral, 4 g), 3 h; in [1] (po, 2 g) it was 2 ± 0.5 h; in data set [1] (po, 4 g), 2 ± 0.5 h. For the same compound, the exposure AUC(0-t) in data set [1] (po, 2 g) was found to be 101 ± 16 ng·h/mL; in data set [1] (po, 4 g) it was 187 ± 48 ng·h/mL. For the same compound, the half-life in data set [1] (po, 2 g) is 1.7 ± 0.5 h; in data set [1] (po, 4 g), 1.7 ± 0.9 h. Moreover, in [1], the “Time of preliminary (initial) peak of plasma concentration-time curve” value (“Time of preliminary” below) is listed as 0.75 h.
For the compound `COc1ccc(/C=C/C(=O)O)cc1O` [IFA, isoferulic acid], in data set [1] (oral), the Cmax is 0.9 to 2 ng/mL and the Tmax amounted to 0.75 h. In addition, in data set [1] (po, 2 g), the AUC(0-t) was 5 ± 2 ng·h/mL, the Cmax turned out to be 0.9 ± 0.3 ng/mL, the time to peak (Tmax) turned out to be 1.3 ± 0.6 h and the half-life is 8.8 ± 5.7 h. Further, in [1] (po, 4 g), the exposure AUC(0-t) stood at 8 ± 0.4 ng·h/mL, the highest level (Cmax) was 2 ± 0.1 ng/mL, the Tmax was 1 ± 0.4 h and the half-life is 2.9 ± 0.6 h. Besides, the “Fold difference in Cmax between the 2 g and 4 g doses” value (shortened to “Fold difference”) in data set [1] is given as “two-fold”. For the same compound, in [4], the “Baseline Total, urine concentration” value came out at 5 ± 2 ng/mL; the “Screening Unconjugated, urine concentration” value (“Screening Unconjugated” for short) was 4 ± 3 ng/mL; the “Screening Total, urine concentration” value is given as 472 ± 246 ng/mL; the “Plasma concentration at screening visit” value was 2.3 ± 1.0 ng/mL. Moreover, in data set [2], the “Predominant form (free or conjugated)” value is reported as “predominantly conjugated form”.
For the compound `COc1cc(CCC(=O)O)ccc1O` [DHFA, dihydroferulic acid], in data set [1] (oral), the peak concentration (Cmax) lay in the range of 11 to 20 ng/mL and the Tmax was determined as 4 h. In data set [1] (po, 2 g), the AUC(0-t) was found to be 42 ± 18 ng·h/mL, the peak level (Cmax) was 11 ± 5 ng/mL, the time to peak (Tmax) was 3.4 ± 1 h and the half-life was 4.5 ± 1.6 h. In data set [1] (po, 4 g), the area under the curve AUC(0-t) stood at 77 ± 25 ng·h/mL, the highest concentration (Cmax) was 20 ± 6 ng/mL, the Tmax was 3.5 ± 0.5 h and the half-life was 2.5 ± 0.3 h. In addition, the “Fold difference” value in [1] is recorded as “two-fold”. Also, in data set [4], the “Baseline Total, urine concentration” value came to 273 ± 131 ng/mL; the “Baseline Unconjugated, urine concentration” value turned out to be 8 ± 6 ng/mL; the “Screening Unconjugated” value is reported as 179 ± 74 ng/mL; the “Screening Total, urine concentration” value worked out at 939 ± 507 ng/mL. Besides, in data set [4], the “Plasma concentration at screening visit” value is listed as 6.6 ± 3.2 ng/mL. Also, the “Predominant form (free or conjugated)” value in data set [2] is “predominantly conjugated form”.
In the case of `O=C(O)/C=C/c1ccc(O)c(O)c1` [CA, caffeic acid], in data set [1] (oral), the Cmax fell in the range of 0.3 to 0.5 ng/mL and the Tmax is 6 h. In [1] (po, 2 g), this compound showed an AUC(0-t) of 1 ± 1 ng·h/mL and a half-life of 2.6 h. In addition, in data set [1] (po, 4 g), the area under the curve AUC(0-t) was found to be 3 ± 0.3 ng·h/mL, the highest level (Cmax) was 1 ± 0.1 ng/mL, the time of peak concentration (Tmax) worked out at 4 ± 1 h and the half-life was 3.5 ± 1.2 h. Further, the highest level in the data set “clinical” (Cmax) was 0.3 ± 0.2 ng/mL. In addition, in [4], the “Screening Unconjugated” value is 184 ± 144 ng/mL; the “Screening Total, urine concentration” value is 260 ± 140 ng/mL; the “Plasma concentration at screening visit” value turned out to be 0.8 ± 0.6 ng/mL.
Take `O=C(O)CCc1cccc(O)c1` [HPP, 3-(3-hydroxyphenyl)propionic acid]: in data set [1] (oral), the Cmax lay within 32 to 42 ng/mL and the Tmax was found to be 6 h. Further, in data set [1] (po, 2 g), the AUC(0-t) was determined as 100 ± 46 ng·h/mL, the highest level (Cmax) was 32 ± 18 ng/mL, the time of peak concentration (Tmax) is 6 ± 1.4 h and the half-life is 2.3 ± 0.3 h. Moreover, in data set [1] (po, 4 g), the AUC(0-t) came to 189 ± 77 ng·h/mL, the highest concentration (Cmax) stood at 42 ± 18 ng/mL, the Tmax amounted to 5.5 ± 1.7 h and the half-life was 1.8 ± 0.7 h. Also, in data set [4], the “Baseline Total, urine concentration” value was found to be 2 ± 2 ng/mL; the “Screening Unconjugated” value is given as 23 ± 14 ng/mL; the “Screening Total, urine concentration” value is 91 ± 48 ng/mL; the “Plasma concentration at screening visit” value is 49.6 ± 30.4 ng/mL. Besides, the “Predominant form (free or conjugated)” value in data set [2] is “predominantly conjugated form”.
As for `C[C@H]1[C@H](C)CC[C@]2(C(=O)O)CC[C@]3(C)C(=CC[C@@H]4[C@@]5(C)C[C@@H](O)[C@H](O)[C@@](C)(CO)[C@@H]5CC[C@]43C)[C@H]12` [AA, asiatic acid], the Tmax post-ingestion in [5] was 4.0 to 4.6 h. For the same compound, in data set [1] (oral), the Cmax lay in the range of 133 to 259 ng/mL and the time of peak concentration (Tmax) was 2 h. In addition, in data set [1] (oral, 2 g), the maximum concentration (Cmax) is 99 ng/mL and the time to peak (Tmax) was found to be 3 h. Besides, in data set [1] (oral, 4 g), the Cmax was determined as 206 ng/mL and the time of peak concentration (Tmax) came to 2.5 h. In data set [1] (po, 2 g), the AUC(0-t) turned out to be 364 ± 114 ng·h/mL, the maximum concentration (Cmax) was found to be 124 ± 29 ng/mL, the time to peak (Tmax) was 2 ± 0.6 h and the half-life was 3.8 ± 1 h. In [1] (po, 4 g), the exposure AUC(0-t) was found to be 935 ± 178 ng·h/mL, the Cmax amounted to 259 ± 24 ng/mL, the time to peak (Tmax) was determined as 2 ± 0.6 h and the half-life is 2.2 ± 0.5 h. Further, in data set [1], the “Time of larger secondary peak of plasma concentration-time curve” value is 2.5 h and 2.5 to 3 h; the “Time of preliminary” value amounted to 0.5 h. The “Screening Total, urine concentration” value in data set [4] was 0.5 ± 5 ng/mL. Further, in data set [2], the “Detection in 10 h post-administration urine” value is listed as “very low concentrations” and the “Predominant form (free or conjugated)” value is on record as “predominantly in the conjugated form”. For the same compound, in data set [6], the “Time of plasma peak post consumption” value is reported as 2.7 h.
Regarding `O=C(O)CCc1ccc(O)c(O)c1` [DHCA, dihydrocaffeic acid], in data set [1] (oral), the maximum concentration (Cmax) lay in the range of 1 to 2 ng/mL and the time to peak (Tmax) is 4 h. In data set [1] (po, 2 g), the exposure AUC(0-t) is 3 ± 0.4 ng·h/mL, the maximum concentration (Cmax) worked out at 1 ± 0.4 ng/mL, the Tmax stood at 3.25 ± 0.5 h and the half-life was 4.8 ± 1.3 h. In data set [1] (po, 4 g), the AUC(0-t) worked out at 6 ± 1 ng·h/mL, the Cmax worked out at 2 ± 0.2 ng/mL, the time of peak concentration (Tmax) turned out to be 3.5 ± 0.5 h and the half-life is 1.1 ± 0.4 h. In data set [1], the “Time of larger secondary peak of plasma concentration-time curve” value is given as 4 h; the “Time of preliminary” value is recorded as 2 h; the “Fold difference” value was “two-fold”. Moreover, in data set [4], the “Baseline Total, urine concentration” value is reported as 9 ± 3 ng/mL; the “Baseline Unconjugated, urine concentration” value turned out to be 0.9 ± 2 ng/mL; the “Screening Unconjugated” value is listed as 46 ± 36 ng/mL; the “Screening Total, urine concentration” value is reported as 117 ± 64 ng/mL. The “Plasma concentration at screening visit” value in [4] came to 0.3 ± 0.2 ng/mL. The “Predominant form (free or conjugated)” value in data set [2] is “predominantly conjugated form”.
Regarding `COc1cc(/C=C/C(=O)O)ccc1O` [FA, ferulic acid], in data set [7], the “Cmax, range over the 2 g and 4 g doses as stated in text” value lay in the range of 1 to 1.4 ng/mL; the “Tmax as stated in text” value is recorded as 6 h. Further, the “Predominant form (free or conjugated)” value in [8] is listed as “predominantly conjugated form”. Besides, in data set [9], the “Plasma concentration at screening visit” value amounted to 1.3 ± 0.2 ng/mL; the “Screening Total, urine concentration” value is listed as 372 ± 78 ng/mL; the “Screening Unconjugated” value came to 7 ± 3 ng/mL.

By Cmax is commonly meant the peak of the concentration-time curve. In general, Tmax refers to the time at which the peak concentration occurs. What is called AUC(0-t) is exposure summed from dosing to a finite time, without extrapolation to infinity. Lower therefore signals less exposure. Usually half-life stands for the time needed for the level to fall by half in the phase considered. High values mean slow loss, low ones fast loss.
